From PMC8471537, “Novel Coumarin-Thiadiazole Hybrids and Their Cu(II) and Zn(II) Complexes as Potential Antimicrobial Agents and Acetylcholinesterase Inhibitors” (International Journal of Molecular Sciences, 2021) come the findings set out here.

Each structure is given as a SMILES string.

The target of the assay is Acetylcholinesterase (AChE; E.C. 3.1.1.7) from Electrophorus electricus (Electrophorus electricus, UniProt O42275). The assay is described as follows: Ellman assay, absorbance at […] nm. It is filed as biochemical.
Acetylcholinesterase (AChE; E.C. 3.1.1.7) from Electrophorus electricus, sequence (O42275 24-633): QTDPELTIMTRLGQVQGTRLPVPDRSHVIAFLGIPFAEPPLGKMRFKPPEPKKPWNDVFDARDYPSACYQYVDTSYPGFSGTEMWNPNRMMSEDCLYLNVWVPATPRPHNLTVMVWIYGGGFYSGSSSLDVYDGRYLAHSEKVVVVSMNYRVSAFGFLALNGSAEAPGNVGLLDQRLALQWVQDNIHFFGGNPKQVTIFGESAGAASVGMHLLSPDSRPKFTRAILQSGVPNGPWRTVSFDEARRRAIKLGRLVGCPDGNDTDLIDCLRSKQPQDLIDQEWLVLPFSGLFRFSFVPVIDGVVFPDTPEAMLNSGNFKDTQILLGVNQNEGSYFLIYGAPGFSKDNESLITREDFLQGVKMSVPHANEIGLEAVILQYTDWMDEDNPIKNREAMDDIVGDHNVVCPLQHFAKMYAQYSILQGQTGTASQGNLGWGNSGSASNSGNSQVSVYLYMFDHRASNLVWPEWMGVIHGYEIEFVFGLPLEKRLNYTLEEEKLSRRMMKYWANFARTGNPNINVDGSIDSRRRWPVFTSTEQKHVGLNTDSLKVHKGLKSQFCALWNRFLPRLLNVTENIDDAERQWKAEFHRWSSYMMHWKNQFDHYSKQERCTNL

In general, IC50 refers to the midpoint of a concentration-inhibition curve. The low end stands for inhibition by little substance, the high end for a need for much substance. As to `Cc1cc(=O)oc2c(-c3nnc(N)s3)c(O)ccc12` [compound 2, 2], the IC50 was found to be 0.218 ± 0.0084 µM. `CNc1nnc(-c2c(O)ccc3c(C)cc(=O)oc23)s1` [compound 3, 3] came in with an IC50 of 0.211 ± 0.0123 µM.

In the case of `CC(=O)Nc1nnc(-c2c(O)ccc3c(C)cc(=O)oc23)s1` [compound 4, 4], the IC50 was found to be 0.181 ± 0.0123 µM. `Cc1cc(=O)oc2c(-c3nnc(Nc4ccccc4)s3)c(O)ccc12` [compound 5, 5] yielded an IC50 of 0.299 ± 0.0194 µM. This IC50 is about 1.7-fold higher than that of the compound before.
